{
  "source": "patent US20220110936A1",
  "about": "“PHARMACEUTICAL COMPOSITION FOR TREATMENT OF NEURODEGENERATIVE DISEASES OR DISEASES CAUSED BY ABNORMALITY OF RNA BINDING PROTEIN AND APPLICATIONS THEREOF” (Shanghai Institute of Organic Chemistry, Chinese Academy of …, priority 2019, published 2022)",
  "key": {"[1]": {"tested_on": "stress granules containing TDP-43 protein in HeLa cells", "experiment": "Assembly of stress granules containing TDP-43 under sodium arsenite (immunofluorescence)", "assay_type": "cell-based, human", "conditions": "20 μM, 3 h pretreatment, vs DMSO", "method": "Drug treatment: in order to inhibit the level of intracellular PARylation, 20 μM PARP inhibitor Olaparib (Selleck) was added 3 hours before harvesting the plasmid-transfected samples mentioned above, and the control group was treated with an equal volume of DMSO.\nIn order to induce the production of stress granules, the HeLa cells collected in 1.1.3 were treated with 100 μM sodium arsenite (Sigma) for 0, 10 and 30 minutes, respectively.\nCells harvested after treatment in 1.1.4 above were washed once with PBS, fixed with 4% paraformaldehyde (Sangon Biotech) for 15 min, permeabilized with 0.5% Triton-X100 (Sigma) solution for 10 min, and finally incubated with PBST solution containing 3% goat serum (Sigma) (0.1% Tween 20 (Sigma) in PBS) for 1 h at room temperature and incubated overnight at 4° C. with antibodies (Rabbit anti-TIAR (CST), Mouse anti-Flag (Sigma)). The cells were washed with PBST three times at room temperature and incubated for 1 hour at room temperature. After washing three times with PBST at room temperature, fluorescent secondary antibodies (goat anti-mouse-Alexa Fluor 488 (Thermo), goat anti-rabbit-Alexa Fluor 568 (Thermo)) were added for labeling, and then Vectashield Antifade Mounting Medium with DAPI (Vector Laboratories) was used to seal the slices. The signals were observed and acquired under a 100× oil microscope on a Leica TCS SP8 confocal microscope. […]"}, "PARP": {"tested_on": "PARP", "experiment": "Western blot of intracellular PARylation level in HeLa cells", "assay_type": "cell-based, human", "conditions": "20 μM, 3 h, vs DMSO", "protocol": "Drug treatment: in order to inhibit the level of intracellular PARylation, 20 μM PARP inhibitor Olaparib (Selleck) was added 3 hours before harvesting the plasmid-transfected samples mentioned above, and the control group was treated with an equal volume of DMSO. […]\nImmunoblotting assay: the above boiled proteins were separated by 10% Bis-Tris SDS-PAGE (Invitrogen), then transferred to 0.22 μm PVDF membrane (Millipore), sealed with 5% skimmed milk powder, and added with corresponding antibodies (anti-pan-ADP-ribose binding reagent (Millipore), mouse anti-Tubulin (MLB), rabbit anti-PRAG (CST), mouse anti-GAPDH (Proteintech)) for immunoblotting assay. Membranes incubated with primary antibodies were then incubated with the corresponding secondary antibodies coupled with HRP (goat anti-mouse (Sigma), goat anti-rabbit (sigma)), and corresponding protein signals were detected in Amersham Imager 600 (GE Healthcare) using ECL luminescent solution (Tanon)."}, "[2]": {"tested_on": "motor neuron-like NSC-34 cells overexpressing TDP-43", "experiment": "Cell viability (CCK-8) of NSC-34 cells overexpressing TDP-43", "assay_type": "cell-based", "conditions": "5 μM", "method": "(§1) 293T cells were cultured in DMEM (sigma) containing 10% FBS (Biowest). NSC-34 cells were cultured with RPMI 1640 medium (Gibco, 11875-093) containing 10% FBS. Cells were grown at 37° C. with 5% carbon dioxide. Cells were both purchased from ATCC.\n(§2) Lentiviral packaging plasmids and the corresponding exogenous hnRNP A1 or TDP-43 expression plasmids were transfected simultaneously in 293T cells with PolyJet™ transfection reagent. After 48 hours of transfection, the cell culture was collected by filtration with a 0.45 μm syringe filter (Millipore) and concentrated with Lenti-X™ Concentrator (Clontech), and the concentrated product was used for subsequent infection of NSC-34 cells.\n(§3) NSC-34 cells were seeded one day in advance in 96-well plates (Corning) and the corresponding lentivirus was added for transfection. Cell viability was determined 48-72 h after transfection using Cell Counting Kit-8 (CCK-8) (Dojindo) kit. In brief, 10 μL of CCK-8 solution was added to each well. After incubation at 37° C. for 2.5 h, the absorbance light at 450 nm of the solution was detected with a Synergy2 microplate reader (BioTek Instruments) and cell viability values were calculated according to the instructions.\n(§4) The siRNA transfection procedure was the same as that in Example 1, and the transfection time was 48-60 h. The corresponding siRNA sequences are as follows."}, "[3]": {"tested_on": "stress granules containing hnRNP A1 protein in HeLa cells", "experiment": "Assembly of stress granules containing hnRNP A1 under sodium arsenite (immunofluorescence)", "assay_type": "cell-based, human", "conditions": "20 μM, 3 h pretreatment, 100 μM sodium arsenite 0, 10, 30 min, vs DMSO", "method": "HeLa cells were cultivated in Dulbecco's modified Eagle's medium (DMEM) (sigma) containing 10% fetal bovine serum (FBS) (Biowest). Cells were purchased from American Type Culture Collection (ATCC) and grown at 37° C., 5% carbon dioxide. In the present invention, unless otherwise specified, cell were seeded 12-18 hours in advance in 24-well plates (Corning) containing glass slides (Thermo) at a density of 2×10^5/ml experiments if the cells were used for subsequent immunofluorescence assays, cells were seeded 12-18 hours in advance in 12-well or 6-well plates at a density of 5×10^5/ml if the cells were used for subsequent WB detection assays.\nPlasmid transfection: The plasmid pCAG-hnRNP A1-Flag constructed in 1.1.1 was transfected with PolyJet™ reagent (SignaGen) (the amount of transfection plasmid is 0.8 μg/ml, and the ratio of transfection reagent to transfection plasmid is 1:2 (mass volume percentage, for example, […])). Cells were seeded 12-18 hours in advance and transfection was started when the confluence of cell reached about 70%. About 6 hours after transfection, culture medium were changed to ensure growth status of cells. After the exogenous protein was expressed for 24-48 h, the next step of the experiment can be carried out. […]"}, "[4]": {"tested_on": "motor neuron-like NSC-34 cells overexpressing hnRNP A1", "experiment": "Cell viability (CCK-8) of NSC-34 cells overexpressing hnRNP A1", "assay_type": "cell-based", "method": "as §1, §2, §3, §4"}, "ALS patients": {"tested_on": "ALS patients", "conditions": "cited from earlier work"}, "hnRNP A1 and TDP-43": {"tested_on": "hnRNP A1 and TDP-43", "experiment": "In vitro co-phase separation of hnRNP A1 and TDP-43 fragments", "method": "TDP-43^1-274: The expression plasmid pET-28a-TDP-43^1-274-6×His was expressed in BL21 E. coli (DE3) (TranGeneBiotech) after induction by 50 uM IPTG (SangonBiotech) at 19° C. for 16 h. The resulting bacteria were collected by centrifugation, and lysed by lysis buffer (50 mM Tris-HCl, 500 mM NaCl, pH 8.0, 10 mM imidazole, 4 mM β-mercaptoethanol, 1 mM PMSF, and 0.1 mg/mL RNase A). Supernatant was collected by centrifugating the lysate at low temperature and then purified and enriched by Ni column (GE Healthcare). The protein enriched by Ni columns was eluted with eluent (50 mM Tris-HCl, 500 mM NaCl, pH 8.0, 250 mM imidazole and 4 mM β-mercaptoethanol), and then purified with Superdex 200 […] column (GE Healthcare). The purified protein was finally dissolved in a storage buffer (50 mM Tris-HCl pH 7.5, 300 mM NaCl and 2 mM DTT) for subsequent experiments.\nTDP-43^274-414: This protein was expressed in BL21 E. coli (DE3) (TranGeneBiotech) by adding 50 uM IPTG (SangonBiotech) at 37° C. for inducing the expression of the protein in inclusion bodies. Collected bacteria were lysed with denaturing lysis buffer (50 mM Tris-HCl, pH 8.0 and 6 M guanidine hydrochloride). The lysis product was centrifuged at high speed for 1 h at 4° C. and the supernatant was collected for purification by Ni column. The proteins were eluted with denaturing elution solution (50 mM Tris-HCl at pH 8.0, 6 M guanidine hydrochloride and 50 mM imidazole) and then further purified by HPLC (Agilent) and the resulting product was lyophilized using a freeze-dryer (Thermo Fisher) and then prepared for use.\nThe purified TDP-43^1-274 and hnRNP A1 proteins (obtained in Example 6) were diluted separately into desalting reaction solution (50 mM Tris-HCl, pH 7.5, 500 mM NaCl and 4 mM Tris(2-Carboxyethyl) Phosphine (TCEP) (Invitrogen)), and DTT was removed using a desalting column (GE Healthcare). After desalting, TDP-43^1-274 and hnRNP A1 proteins were incubated for 2 h at room temperature with 5 times the volume of AlexaFluor-555 C2-malemide (Invitrogen) or AlexaFluor-647 C2-malemide (Invitrogen), respectively. […]"}, "hnRNP A1": {"biological_target": "T1, hnRNP A1 (Homo sapiens, UniProt P09651)", "T1 construct": "host or cells: E. coli BL21 (DE3) pLysS", "T1 sequence (P09651 1-320 isoform P09651-2)": "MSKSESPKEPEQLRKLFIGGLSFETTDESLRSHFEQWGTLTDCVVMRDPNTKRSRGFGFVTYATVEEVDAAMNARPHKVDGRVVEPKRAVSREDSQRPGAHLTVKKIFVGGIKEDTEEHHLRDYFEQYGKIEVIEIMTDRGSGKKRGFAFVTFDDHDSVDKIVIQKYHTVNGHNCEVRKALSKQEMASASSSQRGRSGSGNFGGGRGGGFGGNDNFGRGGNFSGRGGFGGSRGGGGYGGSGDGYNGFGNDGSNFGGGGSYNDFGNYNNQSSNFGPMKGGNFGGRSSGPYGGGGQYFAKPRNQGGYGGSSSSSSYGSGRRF", "experiment": "In vitro liquid-liquid phase separation (LLPS) of hnRNP A1", "conditions": "added under critical conditions", "method": "pET9d-hnRNP A1 (Addgene) was used for hnRNP A1 protein expression in E. coli BL21 (DE3) pLysS (TranGeneBiotech). After 0.4 mM IPTG (SangonBiotech) induction at 25° C. for 15 h, the obtained bacteria were collected by centrifugation, and lysed by lysis buffer (50 mM Tris-HCl at pH 7.5, 2 mM DTT, 1 mM PMSF, 5% glycerin, and 0.1 mg/mL RNase A). Supernatant was collected by centrifugating the lysate at a high speed at 4° C. and then transferred to a 5 ml SP column in an AKTA (GE Healthcare) machine. The protein binded on the column was eluted with a mixture (9:1) of buffer A (50 mM Tris-HCl pH 7.5, 2 mM DTT and 5% glycerin) and buffer B (buffer A with 1 M NaCl). The eluted protein was purified by Superdex 75 16/600 column (GE Healthcare). The purified protein was dissolved in stock buffer (50 mM Tris-HCl pH 7.5, 500 mM NaCl and 2 mM DTT) for subsequent experiments.\nThe purified hnRNP A1 protein was mixed with a certain concentration of PAR (Trevigen) under a certain salt concentration. The reaction system was 50 mM Tris-HCl, pH 7.5, 10% (w/v) […] (Sigma) and 2 mM DTT. After the mixture was incubated at room temperature for 3 minutes, 5 μl was dropped on a glass slide for observation with an SP8 confocal microscope (Leica)."}},
  "data": [
    {"compound": "O=C(c1cc(Cc2n[nH]c(=O)c3ccccc23)ccc1F)N1CCN(C(=O)C2CC2)CC1", "note": "[Olaparib]", "values": [
      {"measurement": "formation of intracellular stress granules and stress granules containing TDP-43", "setting": "[1]", "result": "delayed"},
      {"measurement": "intracellular level of PARylation (WB)", "setting": "PARP", "result": "significantly reduce"},
      {"measurement": "cytotoxicity induced by overexpression of TDP-43", "setting": "[2]", "result": "can reduce the cytotoxicity"},
      {"measurement": "formation of intracellular stress granules and stress granules containing hnRNP A1", "setting": "[3]", "result": "delayed"},
      {"measurement": "hnRNP A1-induced neurocytotoxicity", "setting": "[4]", "result": "significant inhibitory effect"}
    ]},
    {"compound": "Nc1nc2ccc(OC(F)(F)F)cc2s1", "note": "[Riluzole]", "values": [
      {"measurement": "prolongation of the patient's life", "setting": "ALS patients; ALS patients", "result": "3-6 months"},
      {"measurement": "side effects", "setting": "ALS patients; ALS patients", "result": "nausea, dizziness and even pneumonia"}
    ]},
    {"compound": "CC1=NN(c2ccccc2)C(=O)C1", "note": "[Edaravone]", "values": [
      {"measurement": "physical impairment in ALS patients", "setting": "ALS patients; phase III clinical trials", "result": "alleviate some degree of physical impairment"}
    ]},
    {"compound": "poly(ADP-ribose) [PAR]", "values": [
      {"measurement": "co-phase separation of hnRNP A1 and TDP-43 1-274", "setting": "hnRNP A1 and TDP-43", "result": "can promote"},
      {"measurement": "co-phase separation of hnRNP A1 and TDP-43 274-414", "setting": "hnRNP A1 and TDP-43; high concentration", "result": "cannot promote"},
      {"measurement": "phase separation of hnRNP A1 or TDP-43 1-274 alone", "setting": "hnRNP A1 and TDP-43; high concentration", "result": "cannot promote"},
      {"measurement": "LLPS of hnRNP A1", "setting": "hnRNP A1", "result": "promoted"}
    ]},
    {"compound": "heparin", "values": [
      {"measurement": "LLPS of hnRNP A1", "setting": "hnRNP A1", "result": "did not promote"}
    ]}
  ]
}
